Measurements from patent US20220396586A1, “THIAZOLE CARBOXAMIDE COMPOUNDS AND USE THEREOF FOR THE TREATMENT OF MYCOBACTERIAL INFECTIONS” (THE GLOBAL ALLIANCE FOR TB DRUG DEVELOPMENT, INC., priority 2019, published 2022).
Converted amounts (≈) assume the structure as drawn.

Tests used:
M. tb H37Rv = test: MIC determination against M. tb H37Rv (MIC-MABA); type: cell-based, Mycobacterium tuberculosis; conditions: 7H9 broth, 10 days exposure, MIC = lowest concentration inhibiting fluorescence by 90%; for MIC: Mycobacterium tuberculosis, H37RV, 240 h, read-out: M. tb H37Rv: MIC-MABA, M. tb H37Rv
M. ab_ATCC = test: MIC against Mycobacterium abscessus (M. ab_ATCC, MHII), procedure of Franz 2017; type: cell-based; conditions: Mycobacterium abscessus ATCC; for MIC: Mycobacteroides abscessus
Description: The procedure described in Franz 2017 was used to generate the data shown in column 2 of Table 1.

Compound	MIC (M. tb H37Rv) [µg/mL]	MIC (M. ab_ATCC) [µg/mL]	M. tb H37Rv: MIC-MABA (M. tb H37Rv) [µg/mL]	M. ab_ATCC: MIC MHII: MIC (M. ab_ATCC) [µg/mL]
C[Si]1(C)CCCC(NC(=O)c2cc3sc(-c4ccccc4)nc3[nH]2)CC1 (racemic) [MPL-357, N-(1,1-dimethylsilepan-4-yl)-2-phenyl-4H-pyrrolo[2,3-d]thiazole-5-carboxamide]	0.012 (≈ 0.0313 µM)	> 64	–	–
COc1nc2[nH]c(C(=O)NC3CCC[Si](C)(C)CC3)cc2s1 (racemic) [MPL-395, N-(1,1-dimethylsilepan-4-yl)-2-methoxy-4H-pyrrolo[2,3-d]thiazole-5-carboxamide]	0.047 (≈ 0.139 µM)	1 (≈ 2.96 µM)	–	–
C[Si]1(C)CCCC(NC(=O)c2cc3sc(-c4ccccc4)nc3[nH]2)CC1 (single isomer, unassigned) [MPL-357A, N-(1,1-dimethylsilepan-4-yl)-2-phenyl-4H-pyrrolo[2,3-d]thiazole-5-carboxamide]	–	–	0.007	–
C[Si]1(C)CCCC(NC(=O)c2cc3sc(-c4ccccc4)nc3[nH]2)CC1 (single isomer, unassigned) [MPL-357B, N-(1,1-dimethylsilepan-4-yl)-2-phenyl-4H-pyrrolo[2,3-d]thiazole-5-carboxamide]	–	–	0.110	–
COc1nc2[nH]c(C(=O)NC3CCC[Si](C)(C)CC3)cc2s1 (single isomer, unassigned) [MPL-395A, N-(1,1-dimethylsilepan-4-yl)-2-methoxy-4H-pyrrolo[2,3-d]thiazole-5-carboxamide]	–	–	0.030	0.5
COc1nc2[nH]c(C(=O)NC3CCC[Si](C)(C)CC3)cc2s1 (single isomer, unassigned) [MPL-395B, N-(1,1-dimethylsilepan-4-yl)-2-methoxy-4H-pyrrolo[2,3-d]thiazole-5-carboxamide]	–	–	0.999	>64
CC1CCC(NC(=O)c2cc3sc(-c4ccccc4)nc3[nH]2)CC1 (single isomer, unassigned) [MPL-433A, N-(4-methylcyclohexyl)-2-phenyl-4H-pyrrolo[2,3-d]thiazole-5-carboxamide]	> 1	–	–	–
CC1CCC(NC(=O)c2cc3sc(-c4ccccc4)nc3[nH]2)CC1 (single isomer, unassigned) [MPL-433B, N-(4-methylcyclohexyl)-2-phenyl-4H-pyrrolo[2,3-d]thiazole-5-carboxamide]	–	–	0.69	–
Cc1nc2[nH]c(C(=O)NC3CCC(C)(C)CC3)cc2s1 [MPL-020, N-(4,4-dimethylcyclohexyl)-2-methyl-4H-pyrrolo[2,3-d]thiazole-5-carboxamide]	0.53 (≈ 1.82 µM)	2 (≈ 6.86 µM)	–	–
CC1(C)CCC(NC(=O)c2cc3scnc3[nH]2)CC1 [MPL-021, N-(4,4-dimethylcyclohexyl)-4H-pyrrolo[2,3-d]thiazole-5-carboxamide]	1.3 (≈ 4.69 µM)	> 64	–	–
Cc1nc2[nH]c(C(=O)N[C@H]3C[C@H]4C[C@@H]([C@@H]3C)C4(C)C)cc2s1 [MPL-025, 2-methyl-N-[(1S,2S,3S,5R)-2,6,6-trimethylnorpinan-3-yl]-4H-pyrrolo[2,3-d]thiazole-5-carboxamide]	0.71 (≈ 2.24 µM)	4 (≈ 12.6 µM)	–	–
C[C@@H]1[C@@H](NC(=O)c2cc3scnc3[nH]2)C[C@H]2C[C@@H]1C2(C)C [MPL-026, N-[(1S,2S,3S,5R)-2,6,6-trimethylnorpinan-3-yl]-4H-pyrrolo[2,3-d]thiazole-5-carboxamide]	3.1 (≈ 10.2 µM)	–	–	–
Cc1nc2[nH]c(C(=O)NC3CCCCCCC3)cc2s1 [MPL-042, N-cyclooctyl-2-methyl-4H-pyrrolo[2,3-d]thiazole-5-carboxamide]	0.35 (≈ 1.2 µM)	> 64	–	–
Cc1nc2cc(C(=O)N[C@H]3C[C@H]4C[C@@H]([C@@H]3C)C4(C)C)[nH]c2s1 [MPL-090, 2-methyl-N-((1S,2S,3S,5R)-2,6,6-trimethylbicyclo[3.1.1]heptan-3-yl)-4H-pyrrolo[3,2-d]thiazole-5-carboxamide]	3.2 (≈ 10.1 µM)	> 64	–	–
Cc1nc2cc(C(=O)NC3CCCCCCC3)[nH]c2s1 [MPL-091, N-cyclooctyl-2-methyl-4H-pyrrolo[3,2-d]thiazole-5-carboxamide]	> 3.2	> 64	–	–
O=C(NC1CCCCCCC1)c1cc2sc(C3CC3)nc2[nH]1 [MPL-142, N-cyclooctyl-2-cyclopropyl-4H-pyrrolo[2,3-d]thiazole-5-carboxamide]	0.93 (≈ 2.93 µM)	> 64	–	–
C[C@@H]1[C@@H](NC(=O)c2cc3sc(C4CC4)nc3[nH]2)C[C@H]2C[C@@H]1C2(C)C [MPL-144, 2-cyclopropyl-N-((1S,2S,3S,5R)-2,6,6-trimethylbicyclo[3.1.1]heptan-3-yl)-4H-pyrrolo[2,3-d]thiazole-5-carboxamide]	1.5 (≈ 4.37 µM)	> 64	–	–
Cc1c(C(=O)N[C@H]2C[C@H]3C[C@@H]([C@@H]2C)C3(C)C)[nH]c2nc(C3CC3)sc12 [MPL-150, 2-cyclopropyl-6-methyl-N-((1S,2S,3S,5R)-2,6,6-trimethylbicyclo[3.1.1]heptan-3-yl)-4H-pyrrolo[2,3-d]thiazole-5-carboxamide]	0.3 (≈ 0.839 µM)	> 64	–	–
Cc1nc2[nH]c(C(=O)NC3CC[Si](C)(C)CC3)cc2s1 [MPL-205, N-(1,1-dimethylsilinan-4-yl)-2-methyl-4H-pyrrolo [2,3-d]thiazole-5-carboxamide]	0.18 (≈ 0.585 µM)	> 64	–	–
Cc1nc2cc(C(=O)NC3CC[Si](C)(C)CC3)[nH]c2s1 [MPL-206, N-(1,1-dimethylsilinan-4-yl)-2-methyl-4H-pyrrolo[3,2-d]thiazole-5-carboxamide]	> 1.6	> 64	–	–
Cc1nc2[nH]c(C(=O)N[C@H]3C[C@H]4C[C@H](C4(C)C)[C@@]3(C)O)cc2s1 [MPL-224, N-[(1R,2R,3S,5R)-2-hydroxy-2,6,6-trimethyl-norpinan-3-yl]-2-methyl-4H-pyrrolo[2,3-d]thiazole-5-carboxamide]	0.39 (≈ 1.17 µM)	> 64	–	–
Cc1c(C(=O)NC2CC[Si](C)(C)CC2)[nH]c2nc(C3CC3)sc12 [MPL-228, 2-cyclopropyl-N-(1,1-dimethylsilinan-4-yl)-6-methyl-4H-pyrrolo[2,3-d]thiazole-5-carboxamide]	0.061 (≈ 0.176 µM)	> 64	–	–
C[Si]1(C)CCC(NC(=O)c2cc3sc(C4CC4)nc3[nH]2)CC1 [MPL-240, 2-cyclopropyl-N-(1,1-dimethylsilinan-4-yl)-4H-pyrrolo[2,3-d]thiazole-5-carboxamide]	0.46 (≈ 1.38 µM)	0.5 (≈ 1.5 µM)	–	–
Cc1c(C(=O)NC2CCCCCCC2)[nH]c2nc(C3CC3)sc12 [MPL-291, N-cyclooctyl-2-cyclopropyl-6-methyl-4H-pyrrolo[2,3-d]thiazole-5-carboxamide]	0.372 (≈ 1.12 µM)	> 64	–	–
Cc1c(C(=O)NC2CCCC[Si](C)(C)CC2)[nH]c2nc(C3CC3)sc12 (centres unmarked) [MPL-293, 2-cyclopropyl-N-(1,1-dimethylsilocan-4-yl)-6-methyl-4H-pyrrolo [2,3-d]thiazole-5-carboxamide]	0.062 (≈ 0.165 µM)	> 64	–	–
CC(C)(C)c1ccc(-c2nc3[nH]c(C(=O)NC4CC[Si]5(CCCCC5)CC4)cc3s2)cc1 [MPL-426, 2-(4-tert-butylphenyl)-N-(6-silaspiro[5.5]undecan-3-yl)-4H-pyrrolo[2,3-d]thiazole-5-carboxamide]	0.12 (≈ 0.258 µM)	–	–	–
COc1nc2[nH]c(C(=O)N[C@H]3C[C@H]4C[C@H](C4(C)C)[C@@]3(C)O)cc2s1 [MPL-457, N-[(1R,2R,3S,5R)-2-hydroxy-2,6,6-trimethyl-norpinan-3-yl]-2-methoxy-4H-pyrrolo[2,3-d]thiazole-5-carboxamide]	> 1	–	–	–
